According to US7449495B2, “Retinoid derivatives with antiangiogenic, antitumoral and proapoptotic activities” (Sigma-Tau Industrie Farmaceutiche Riunite S.p.A., priority 2001, dated 2008):

Tests used:
[1] = test system: human no small cell lung carcinoma NCI-H460; assay: Antitumoral activity in human no small cell lung carcinoma model NCI-H460; assay type: in vivo; settings: NCI-H460, 15 mg/kg po
Experimental: The ST1926 solution was prepared immediately before use and solubilised in cremophor:ethanol 1:1 and subsequently diluted 1:4 in buffered saline solution. The animal treatments were administered in a volume of 10 ml/kg. […] Measurements of tumor dimensions were performed using a digital calliper (Vernier Caliper) twice weekly, from the time in which the mass was measurable. The tumor mass was evaluated from the size of the two principal dimensions (length and breadth), expressed in mm, applying the formula (length×breadth^2)/2, that is, the tumor volume in mm3. For each experimental group, the percentage of tumor volume inhibition was calculated (TVI %), with respect to the control, namely (100−(T/C %). TVI was evaluated 2 days after the final administration of ST1926.
A comparison between the TVI values obtained for each group was performed using the non parametric Mann Whitney test for non-paired data, using the Instat software from GraphPad inc.

[2] = test system: Human ovarian carcinoma IGROV-1/Pt (platinum resistant); assay: Cytotoxicity test (sulphorodamine B), IGROV-1/Pt; assay type: cell-based; settings: 24 h incubation, survival 48 h after removal
Source text: (§1) Different cell lines deriving from solid tumors were also used. • 1. Human prostate carcinoma PC3 and DU145. These cell lines were maintained in RPMI 1640 medium containing 10% FCS, 1% sodium pyruvate and 1% glutamine; • 2. Human colon adenocarcinoma LoVo. This cell line was maintained in HAM's F-12 medium, containing 10% FCS and 1% glutamine. • 3. Human ovarian carcinoma such as A2780 and A2780/Dx, sensitive and resistant to drugs, respectively (doxorubicin, taxol, etoposide, vincristine); IGROV-1 and IGROV-1/Pt, sensitive and resistant to platinum-based chemotherapy, respectively, were maintained in RPMI 1640 medium containing 10% FCS, 1% sodium pyruvate and 1% glutamine; • 4. Human melanoma MeWo and MeS 2.21, glioblastoma GBM, no small cell lung carcinomas A431, NCI—H460, osteosarcomas SAOS and U2OS were maintained in RPMI 1640 medium containing 10% FCS, 1% sodium pyruvate and 1% glutamine.
(§2) The cytotoxicity tests were carried out using NB4 or HL-60 cells in suspension (10000/well). The cells were seeded in a volume of 250 μl in 96 well plates and incubated for 24 hours at 37° C. […] The optical density was measured using a Multiskan spectrophotometer at 540 nm. […]
(§3) Cell survival was determined by incubation with ST1926 for 24 hours, 48 hours after the removal of the compound. […]

glioblastoma GBM = assay: Cytotoxicity test (sulphorodamine B), GBM; assay type: cell-based; settings: Homo sapiens, 24 h incubation, survival 48 h after removal
Source text: as §1, §2, §3

[3] = test system: Human Promyelocytic Leukaemia HL-60 Cells; assay: Cyto-fluorometric cell cycle analysis, HL-60; assay type: cell-based; settings: for APOPTOSIS / G0/G1 / G2 + M / S: 3 days; for G0/G1 / G2 + M / S: percentage of cell cycle phase
Experimental: To evaluate the effect of the compound according to the invention, on various phases of the cell cycle, cyto-fluorometric cell cycle analyses were performed.
HL60 or NB4 cells were seeded onto plates at a density of 150.000 cells/ml in RPMI 1640 medium containing 10% FCS, the test compound (ST 1926) was added, […], in the presence or absence of sub-optimal doses of ATRA (5-10 nM for NB4 and 0.5 μM for HL60) in the dark and placed in an incubator for 3 days without changing the culture medium.
On the third day of treatment 500.000 cells were sampled, centrifuged at 180×g for 5 minutes, washed twice in calcium and magnesium free PBS. The cells (1×10^6/ml of fixative) were fixed for at least 1 hour in a fixation mixture comprised of acetone/methanol 1:4 v/v maintained at −20° C. and 50% of calcium and magnesium free PBS; then the cells were centrifuged, washed in calcium and magnesium free PBS, and again centrifuged and washed. The cellular precipitate was incubated for 30 minutes in the dark at room temperature with 200 μl of […] (100 μg/ml) and 200 μl of RNAse (150 KU/mg).
The samples with filtered through nylon filters (60-80 μm diameter) and analysed by cyto-fluorimeter FACScan (Becton Dickinson), acquiring 20000 events/sample, at an excitation wavelength of 488 nm and emission wavelength of 620 nm. The analysis of the percentages of the cell cycle phases was performed using a dedicated software package, Modfit v. 2.0 (Becton Dickinson).

`O=C(O)/C=C/c1ccc(-c2ccc(O)c(C34CC5CC(CC(C5)C3)C4)c2)cc1` [ST1926, E-4-(3-(1-adamantyl)-4-hydroxyphenyl)cinnamic acid] was tested, and the “BWL % Max” value ([1]; qdx3x3w) was 4%, the Lethality ([1]; qdx3x3w) was 0/8 and the “TVI % ± SE” value ([1]; qdx3x3w) was “*52 ± 7%”. For the same compound, the “BWL % Max” value ([1]; qdx4x3w) was 14%, the Lethality ([1]; qdx4x3w) was 0/8 and the “TVI % ± SE” value ([1]; qdx4x3w) was “**38 ± 8%”. For the same compound, the “BWL % Max” value ([1]; qdx5x3w) was 4%, the Lethality ([1]; qdx5x3w) was 0/8 and the “TVI % ± SE” value ([1]; qdx5x3w) was “*40 ± 2%”. The IC50 [2] was 330 nM, the IC50 (glioblastoma GBM) was 180 nM and the APOPTOSIS ([3]; HL-60, 0.0025 μM) was 8. The G0/G1 ([3]; HL-60, 0.0025 μM) was 54.9, the “G2 + M” value ([3]; HL-60, 0.0025 μM) was 11.7 and the S ([3]; HL-60, 0.0025 μM) was 33.4. The APOPTOSIS ([3]; HL-60, 0.005 μM) was 14.0, the G0/G1 ([3]; HL-60, 0.005 μM) was 53.4 and the “G2 + M” value ([3]; HL-60, 0.005 μM) was 12.2. For the same compound, the S ([3]; HL-60, 0.005 μM) was 34.4, the APOPTOSIS ([3]; HL-60, 0.01 μM) was 12.5 and the G0/G1 ([3]; HL-60, 0.01 μM) was 52.0. For the same compound, the “G2 + M” value ([3]; HL-60, 0.01 μM) was 12.6, the S ([3]; HL-60, 0.01 μM) was 35.4 and the APOPTOSIS ([3]; HL-60, 0.05 μM) was 13.0. The G0/G1 ([3]; HL-60, 0.05 μM) was 45.0, the “G2 + M” value ([3]; HL-60, 0.05 μM) was 13.0 and the S ([3]; HL-60, 0.05 μM) was 42.0. The APOPTOSIS ([3]; HL-60, 0.1 μM) was 27.5, the G0/G1 ([3]; HL-60, 0.1 μM) was 39.9 and the “G2 + M” value ([3]; HL-60, 0.1 μM) was 13.3. The S ([3]; HL-60, 0.1 μM) was 46.8, the APOPTOSIS ([3]; HL-60, 0.5 μM) was 82 and the APOPTOSIS ([3]; HL-60, 1 μM) was 86.5. The “effect on HL-60 cells (in words)” value ([3]; HL-60, 0.5 and 1 μM, three days, cell cycle not measurable) was “strong pro-apoptotic effect”.
